Data on six compounds can be found in article PMC6173406, “Design and evaluation of selective butyrylcholinesterase inhibitors based on Cinchona alkaloid scaffold” (PLoS ONE, 2018).

The structures appear in SMILES notation. Read-outs that look alike come from different tables or passages of the source.

The target of assay [1] is T1, human BChE (Homo sapiens, UniProt P06276).
T1 construct: gift of Dr. F. Nachon (Département de Toxicologie, Armed Forces Biomedical Research Institute, France)
To be noted: cited from earlier work.

Assay [2] deals with T1, human BChE. The experiment in a line: Reversible inhibition of human BChE, Ellman method with ATCh, Hunter-Downs analysis. Format: biochemical. Details: key to BChE type of inhibition: c, n and m stands for competitive, noncompetitive and mixed type of inhibition; c, n and m stands for competitive, noncompetitive and mixed type of inhibition; c, n and m stands for competitive, noncompetitive and mixed type of inhibition. As to conditions: for Ki: enzyme-inhibitor dissociation constant ± standard error, ATCh 0.050–0.50 mM, pH 7.4, 25 °C; for BChE Ks: enzyme-substrate (ATCh) dissociation constant derived from the inhibition kinetics with the compound; for Ki(AChE)/ Ki (BChE): inhibition selectivity, ratio of Ki constants for AChE and BChE; for BChE type of inhibition: symbol in brackets after Ki. The method, then: (§1) Purified human BChE and recombinant human AChE were kindly provided by Dr. F. Nachon (Département de Toxicologie, Armed Forces Biomedical Research Institute, France). The concentration of enzymes (BChE: 5.6 μM; AChE: 0.20 μM) was determined as described previously. The concentrated stocks of enzymes were diluted in a phosphate sodium buffer 0.1 M (pH 7.4) containing 0.1% BSA.
(§2) Enzyme activities were measured spectrophotometrically by Ellman method at 412 nm using 0.30 mM DTNB as thiol reagent and ATCh (0.050–0.50 mM) as substrate in 0.1 M phosphate buffer, pH 7.4 [29, 30]. For the inhibition, the reaction mixture also contained cinchonidines or cinchonines (final concentrations 0.020–200 μM, depending on compound). In the case of compounds CD-(pCl) and CN-(pCl), the final content of DMSO was the same in enzyme activity measurement and in inhibition measurements, up to 0.32%. No side interactions of tested compounds with ATCh or DTNB were detected. Measurements were done at 25 °C on a Tecan Infinite M200Pro plate reader (Austria).
(§3) The reversible inhibition of BChE and AChE by cinchonines and cinchonidines was measured by determining the decrease of enzyme activity towards ATCh (0.050–0.50 mM) in their presence. The activities of the enzymes were measured at different substrate concentrations ([S]) in the absence (v0) and presence (vi) of given cinchonines and cinchonidines concentration ([I]) selected to inhibit the enzymes for 20–80%. At least three concentrations of inhibitors for each substrate concentration were used in at least two experiments. The apparent dissociation inhibition constant (Ki,app) was calculated using the Hunter-Downs equation and the linear regression analysis: Ki,app=vi/v0−vi⋅[I]=K(I)+K(I)/K(S)⋅[S] where y-intercept determines the enzyme-inhibitor dissociation constants (K(I)), while x-intercept determines the enzyme-substrate dissociation constant, K(S). The equation was used with the assumption that the substrate, due to relatively low substrate concentrations used in experiments, binds only to the catalytic site, while inhibitor can bind to both sites catalytic and peripheral site. In other words, if the inhibitor competes with substrate for binding to the catalytic site of the enzyme, Ki,app proportionally depend on the substrate concentration. […] The curve means that the inhibitor binds not only to the catalytic or peripheral site but also to intermediates of Michaelis type of the enzyme-substrate complex.

The target in the next assay is T2, human AChE (Homo sapiens, UniProt P22303).
T2 construct: gift of Dr. F. Nachon (Département de Toxicologie, Armed Forces Biomedical Research Institute, France)
The experiment in a line: Reversible inhibition of human AChE, Ellman method with ATCh, Hunter-Downs analysis. Set-up: key to AChE type of inhibition: c, n and m stands for competitive, noncompetitive and mixed type of inhibition; c, n and m stands for competitive, noncompetitive and mixed type of inhibition; c, n and m stands for competitive, noncompetitive and mixed type of inhibition. Format: biochemical. To be noted: for Ki: enzyme-inhibitor dissociation constant ± standard error, ATCh 0.050–0.50 mM, pH 7.4, 25 °C; for AChE Ks: enzyme-substrate (ATCh) dissociation constant derived from the inhibition kinetics with the compound; for AChE type of inhibition: symbol in brackets after Ki. The method, then:
as §1, §2, §3
A general note: In Ellman's method for cholinesterases, released thiocholine reacts with DTNB.

T2 sequence (P22303 32-614): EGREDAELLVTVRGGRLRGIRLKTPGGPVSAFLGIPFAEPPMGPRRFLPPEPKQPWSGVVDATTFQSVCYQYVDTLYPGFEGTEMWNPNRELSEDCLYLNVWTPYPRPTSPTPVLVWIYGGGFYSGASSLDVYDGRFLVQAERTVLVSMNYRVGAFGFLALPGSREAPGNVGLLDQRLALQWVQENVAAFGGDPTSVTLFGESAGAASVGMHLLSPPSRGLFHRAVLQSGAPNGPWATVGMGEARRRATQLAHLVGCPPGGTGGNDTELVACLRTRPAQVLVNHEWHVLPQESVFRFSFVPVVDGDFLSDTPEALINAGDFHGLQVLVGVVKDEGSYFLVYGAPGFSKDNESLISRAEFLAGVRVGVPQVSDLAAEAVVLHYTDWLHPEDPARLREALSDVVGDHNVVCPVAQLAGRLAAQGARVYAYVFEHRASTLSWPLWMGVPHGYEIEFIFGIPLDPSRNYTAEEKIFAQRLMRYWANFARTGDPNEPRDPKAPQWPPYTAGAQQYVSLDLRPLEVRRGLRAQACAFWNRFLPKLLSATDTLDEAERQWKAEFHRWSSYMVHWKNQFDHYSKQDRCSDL
T1 sequence (P06276 29-602): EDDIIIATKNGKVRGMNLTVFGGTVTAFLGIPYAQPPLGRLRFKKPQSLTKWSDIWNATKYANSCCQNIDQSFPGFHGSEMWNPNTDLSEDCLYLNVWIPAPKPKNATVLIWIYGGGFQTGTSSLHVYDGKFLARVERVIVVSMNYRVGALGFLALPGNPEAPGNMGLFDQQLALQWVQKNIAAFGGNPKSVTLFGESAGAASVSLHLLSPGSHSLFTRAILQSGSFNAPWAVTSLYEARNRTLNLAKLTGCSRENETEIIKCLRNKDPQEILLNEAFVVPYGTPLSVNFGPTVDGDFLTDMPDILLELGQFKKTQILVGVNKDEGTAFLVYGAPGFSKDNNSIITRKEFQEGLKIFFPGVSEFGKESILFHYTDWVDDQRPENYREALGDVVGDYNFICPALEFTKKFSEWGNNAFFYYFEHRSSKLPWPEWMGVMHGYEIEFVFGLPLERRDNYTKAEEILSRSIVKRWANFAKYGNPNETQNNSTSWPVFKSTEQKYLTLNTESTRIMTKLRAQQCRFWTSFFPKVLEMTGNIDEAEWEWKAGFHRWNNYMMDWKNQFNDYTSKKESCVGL

Turning to `CCN(CC)C(C)CN1c2ccccc2Sc2ccccc21` (centres unmarked) [Ethopropazine], the “BChE Ks” value at human BChE [1] was 0.69 ± 0.14 mM. Also, the Ki at human BChE [1] (read-out: BChE Ki) was 0.16 ± 0.03 µM.
With `C=C[C@H]1CN2CC[C@H]1C[C@H]2[C@H](O)c1ccnc2ccccc12` [CD, cinchonidine, reference compound], on human BChE [2], the Ki turned out to be 28 ± 4 µM, the “BChE Ks” value is 0.25 ± 0.05 mM, the “Ki(AChE)/ Ki (BChE)” value was roughly 14 and the “BChE type of inhibition” value is given as “c”. The “AChE affinity lower than for the highest-affinity compounds” value on human AChE (compared to CD-(mNO2) and CD-(mCH3)) is listed as “about 160 times”. Moreover, the Ki on human AChE is greater than 400 µM.
As for `C=CC1C[N+]2(Cc3cccc([N+](=O)[O-])c3)CCC1CC2C(O)c1ccnc2ccccc12` (centres unmarked) [CN-(mNO2)], on human BChE [2], the Ki was 4.2 ± 0.3 µM, the “BChE Ks” value is 0.35 ± 0.04 mM, the “Ki(AChE)/ Ki (BChE)” value is 2.1 and the “BChE type of inhibition” value was “m”. Also, at human AChE, the inhibition constant Ki was found to be 8.6 ± 0.5 µM, the “AChE Ks” value is 0.72 ± 0.10 mM and the “AChE type of inhibition” value is “m”.
Take `C=C[C@H]1C[N@@]2CC[C@H]1C[C@@H]2[C@@H](O)c1ccnc2ccccc12` [CN, cinchonine, reference compound]: on human BChE [2], the inhibitory constant (Ki) is 4.9 ± 1.4 µM, the “BChE Ks” value worked out at 0.50 ± 0.27 mM and the “BChE type of inhibition” value is recorded as “c”. Also, at human AChE, the inhibitory constant (Ki) amounted to 34 ± 1 µM, the “AChE Ks” value was found to be 0.25 ± 0.01 mM and the “AChE type of inhibition” value is “c”.
For `C=CC1C[N+]2(Cc3ccc(Br)cc3)CCC1CC2C(O)c1ccnc2ccccc12` (centres unmarked) [CN-(pBr)], on human BChE [2], the affinity corresponds to a Ki of 3.5 ± 0.3 µM, the “BChE Ks” value is 0.44 ± 0.07 mM, the “Ki(AChE)/ Ki (BChE)” value is reported as 8.8 and the “BChE type of inhibition” value is recorded as “c”. At human AChE, the Ki came out at 31 ± 1 µM, the “AChE Ks” value was determined as 2.7 ± 0.9 mM and the “AChE type of inhibition” value is listed as “m”.
As for `C=CC1C[N+]2(Cc3cccc(C)c3)CCC1CC2C(O)c1ccnc2ccccc12` (centres unmarked) [CN-(mCH3), N-(3-methylbenzyl) cinchoninium bromide], on human BChE [2], the inhibitory constant (Ki) stood at 4.6 ± 0.4 µM, the “BChE Ks” value was 0.53 ± 0.00 mM, the “Ki(AChE)/ Ki (BChE)” value was 11 and the “BChE type of inhibition” value is “m”. Moreover, at human AChE, affinity was put at a Ki of 49 ± 2 µM, the “AChE Ks” value was determined as 0.66 ± 0.06 mM and the “AChE type of inhibition” value is “m”.

Broadly, the Ki is the dissociation constant of the complex between target and ligand, obtained from inhibition or displacement.
